From EP0459829A1, “Pharmacologically active CNS compounds” (THE WELLCOME FOUNDATION LIMITED, priority 1990, dated 1991) come the findings set out here.

Test [1] deals with veratrine-evoked release of glutamate from rat brain slices. Nature of the test: Inhibition of veratrine-evoked release of glutamate from rat brain slices. It counts as cell-based. The note with it: read-out: IC50(µM) Glutamate Release (P95 limits). As to the method:
(§1) A compound of Formula (1) was tested for its effect on veratrine-evoked release of glutamate from rat brain slices according to the protocol described in Epilepsia 27(5): 490-497, 1986. The protocol for testing for inhibition of DHFR activity was a modification of that set out in Biochemical Pharmacology Vol.20 pp 561-574, 1971.
(§2) The results are given in Table 1, the IC50 being the concentration of compound to cause 50% inhibition of (a) veratrine-evoked release of glutamate and (b) of DHFR enzyme activity.

Another test concerns the target T1, Rat Liver DHFR (Rattus norvegicus, UniProt Q920D2).
T1 construct: from tissue; host or cells: rat liver
T1 sequence (Q920D2 1-187): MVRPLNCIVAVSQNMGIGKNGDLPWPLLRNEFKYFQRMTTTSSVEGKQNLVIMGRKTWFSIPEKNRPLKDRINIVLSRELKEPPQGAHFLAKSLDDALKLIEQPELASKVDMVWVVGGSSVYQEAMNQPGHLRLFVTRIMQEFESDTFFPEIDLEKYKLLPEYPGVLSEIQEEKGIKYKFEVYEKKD
Put plainly: Inhibition of DHFR enzyme activity. It counts as biochemical. The note with it: read-out: IC50(µM) Rat Liver DHFR (P95 limits). As for the experimental part: as §1, §2

SMILES strings stand for the structures.

For `Nc1nnc(-c2cc(Cl)c(N)c(Cl)c2Cl)c(N)n1` [Example 1, 3,5-Diamino-6-(4-amino-2,3,5-trichlorophenyl)-1,2,4-triazine], the results for the IC50 (in test [1]; on Rat Liver DHFR) were under 10 µM and over 100 µM, respectively.
